Patent publication US6844435B2, “Heterocyclic compounds useful as inhibitors of tyrosine kinases” (Boehringer Ingelheim Pharmaceuticals, Inc., priority 2000, dated 2005)

Row | SMILES | melting point
1 | C/C(=C\c1cc(N/C(=N\C(=O)OC(C)(C)C)NC(=O)OC(C)(C)C)cc(N/C(=N\C(=O)OC(C)(C)C)NC(=O)OC(C)(C)C)c1)c1nc2ccc3nc(Nc4c(Cl)cccc4Cl)[nH]c3c2c(=O)[nH]1 [Example 103] | > 300 °C
2 | Cc1nc(-c2nc3ccc4nc(Nc5c(Cl)cccc5Cl)n(C)c4c3c(=O)[nH]2)cs1 [Example 79] | 295 °C (dec.)
3 | Cc1ccccc1-c1nc2ccc3nc(Nc4c(Cl)cccc4Cl)n(C)c3c2c(=O)[nH]1 [Example 38] | > 300 °C
4 | Cn1c(Nc2c(Cl)cccc2Cl)nc2ccc3nc(C(=O)O)[nH]c(=O)c3c21 [Example 42] | > 300 °C
5 | Cn1c(Nc2c(Cl)cccc2Cl)nc2ccc3nc(-c4ccc(Br)o4)[nH]c(=O)c3c21 [Example 57] | 280 to 283 °C
6 | Cn1c(Nc2c(Cl)cccc2Cl)nc2ccc3nc(-c4csc(CC5CCCNC5)n4)[nH]c(=O)c3c21 (stereo not drawn) [Example 78] | 161 to 166 °C
7 | Cn1c(Nc2c(Cl)cccc2Cl)nc2ccc3nc(-c4ccoc4)[nH]c(=O)c3c21 [Example 8, 2-(2,6-Dichlorophenylamino)-1-methyl-7-furan-3-yl-1,8-dihydro-9H-imidazo[4,5-f]quinazoline-9-one] | > 300 °C
8 | Cn1c(Nc2c(Cl)cccc2Cl)nc2ccc3nc(-c4cccc([N+](=O)[O-])c4)[nH]c(=O)c3c21 [Example 18] | > 300 °C
9 | Cn1c(Nc2c(Cl)cccc2Cl)nc2ccc3nc(C4=CC(O)CC4)[nH]c(=O)c3c21 (stereo not drawn) [Example 66] | 285 °C
10 | CN1CCC=C(c2nc3ccc4nc(Nc5c(Cl)cccc5Cl)n(C)c4c3c(=O)[nH]2)C1 [Example 54] | 255 °C
11 | Cn1c(Nc2c(Cl)cccc2Cl)nc2ccc3nc(-c4ccc(S(=O)(=O)N5CCNCC5)cc4)[nH]c(=O)c3c21 [Example 100] | 246 °C
12 | Cn1c(Nc2c(Cl)cccc2Cl)nc2ccc3nc(-c4cccs4)[nH]c(=O)c3c21 [Example 22] | > 300 °C
13 | Cn1c(Nc2c(Cl)cccc2Cl)nc2ccc3nc(-c4csc([C@@H]5CCCC[C@H]5NC(=O)OCc5ccccc5)n4)[nH]c(=O)c3c21 [Example 75] | 163 to 169 °C
14 | Cn1c(Nc2c(Cl)cccc2Cl)nc2ccc3nc(C4=CC5CNCC5C4)[nH]c(=O)c3c21 (stereo not drawn) [Example 95] | 265 °C (dec.)
15 | Cn1c(Nc2c(Cl)cccc2Cl)nc2ccc3nc(C(=O)c4ccccc4)[nH]c(=O)c3c21 [Example 60] | 280 °C (dec.)
16 | CCNC(=O)Nc1cccc(-c2nc3ccc4nc(Nc5c(Cl)cccc5Cl)n(C)c4c3c(=O)[nH]2)c1 [Example 20] | 251 °C (dec.)
17 | Cn1c(Nc2c(Cl)cccc2Cl)nc2ccc3nc(C4=CCNC4)[nH]c(=O)c3c21 [Example 86] | 240 to 241 °C (dec.)
18 | Cn1c(Nc2c(Cl)cccc2Cl)nc2ccc3nc(C4=CCC(C#N)C4)[nH]c(=O)c3c21 (stereo not drawn) [Example 69] | > 295 °C (dec.)
19 | C/C(=C\c1cccc(C#N)c1)c1nc2ccc3nc(Nc4c(Cl)cccc4Cl)n(C)c3c2c(=O)[nH]1 [Example 70] | 288 to 290 °C
20 | Cn1c(Nc2c(Cl)cccc2Cl)nc2ccc3nc(-c4ccc(-c5ccccc5[N+](=O)[O-])o4)[nH]c(=O)c3c21 [Example 55] | 289 to 292 °C
21 | C/C(=C\c1ccccc1[N+](=O)[O-])c1nc2ccc3nc(Nc4c(Cl)cccc4Cl)n(C)c3c2c(=O)[nH]1 [Example 71] | 290 to 292 °C
22 | Cn1c(Nc2c(Cl)cccc2Cl)nc2ccc3nc(-c4csc([C@H]5CCCN5)n4)[nH]c(=O)c3c21 [Example 98] | 290 °C (dec.)

Row | SMILES | melting point
23 | C/C(=C\c1cccc(N)c1)c1nc2ccc3nc(Nc4c(Cl)cccc4Cl)n(C)c3c2c(=O)[nH]1 [Example 84] | > 300 °C (dec.)
24 | Cn1c(Nc2c(Cl)cccc2Cl)nc2ccc3nc(-c4ncc[nH]4)[nH]c(=O)c3c21 [Example 25] | > 300 °C
25 | CCCCCC1NC(=O)c2c(ccc3nc(Nc4c(Cl)cccc4Cl)n(C)c23)N1C (stereo not drawn) [Example 87] | 126 to 128 °C
26 | Cn1c(Nc2c(Cl)cccc2Cl)nc2ccc3nc(-c4csc(-c5cccc([N+](=O)[O-])c5)n4)[nH]c(=O)c3c21 [Example 24] | > 300 °C
27 | C=Cc1nc2ccc3nc(Nc4c(Cl)cccc4Cl)n(C)c3c2c(=O)[nH]1 [Example 21] | 278 to 284 °C (dec.)
28 | C/C(=C\c1cc([N+](=O)[O-])cc([N+](=O)[O-])c1)c1nc2ccc3nc(Nc4c(Cl)cccc4Cl)n(C)c3c2c(=O)[nH]1 | 315 to 317 °C (dec.)
29 | Cc1ncc(-c2nc3ccc4nc(Nc5c(Cl)cccc5Cl)n(C)c4c3c(=O)[nH]2)o1 [Example 46] | > 300 °C
30 | C/C(=C\c1cccc(CN)c1)c1nc2ccc3nc(Nc4c(Cl)cccc4Cl)n(C)c3c2c(=O)[nH]1 [Example 89] | 197 to 205 °C
31 | Cn1c(Nc2c(Cl)cccc2Cl)nc2ccc3nc(-c4cc5ccccc5o4)[nH]c(=O)c3c21 [Example 39] | > 300 °C
32 | Cn1c(Nc2c(Cl)cccc2Cl)nc2ccc3nc(C4CC4)[nH]c(=O)c3c21 [Example 59] | > 300 °C
33 | C/C=C(\C)c1nc2ccc3nc(Nc4c(Cl)cccc4Cl)n(C)c3c2c(=O)[nH]1 [Example 45] | 278 °C (dec.)
34 | Cn1c(Nc2c(Cl)cccc2Cl)nc2ccc3nc(C4CCCC4)[nH]c(=O)c3c21 [Example 50] | 283 to 284 °C
35 | C=C(C)c1nc2ccc3nc(Nc4c(Cl)cccc4Cl)n(C)c3c2c(=O)[nH]1 [Example 33] | > 300 °C
36 | Cn1c(Nc2c(Cl)cccc2Cl)nc2ccc3nc(-c4cccc(S(=O)(=O)N5CCN(C(=O)CO)CC5)c4)[nH]c(=O)c3c21 [Example 91] | > 300 °C
37 | CCc1nc2ccc3nc(Nc4c(Cl)cccc4Cl)n(C)c3c2c(=O)[nH]1 [Example 53] | > 300 °C
38 | Cn1c(Nc2c(Cl)cccc2Cl)nc2ccc3nc(-c4cccnc4)[nH]c(=O)c3c21 [Example 30] | > 300 °C
39 | CC(C)=Cc1nc2ccc3nc(Nc4c(Cl)cccc4Cl)n(C)c3c2c(=O)[nH]1 [Example 28] | > 300 °C
40 | Cn1c(Nc2c(Cl)cccc2Cl)nc2ccc3nc(-c4scc(S(C)(=O)=O)c4Cl)[nH]c(=O)c3c21 [Example 23] | 280 °C
41 | Cn1c(Nc2c(Cl)cccc2Cl)nc2ccc3nc(C4=CC(N5CCN(C(=O)OC(C)(C)C)CC5)CC4)[nH]c(=O)c3c21 (stereo not drawn) [Example 65] | 168 to 170 °C
42 | Cn1c(Nc2c(Cl)cccc2Cl)nc2ccc3nc(-c4nc(-c5ccc(OC(F)(F)F)cc5)no4)[nH]c(=O)c3c21 [Example 32] | > 300 °C
43 | CN1CCN(S(=O)(=O)c2cccc(-c3nc4ccc5nc(Nc6c(Cl)cccc6Cl)n(C)c5c4c(=O)[nH]3)c2)CC1 [Example 61] | 215 °C (dec.)
44 | Cn1c(Nc2c(Cl)cccc2Cl)nc2ccc3nc(C4=CC5C=CC4N5)[nH]c(=O)c3c21 (stereo not drawn) | > 300 °C

Row | SMILES | melting point
45 | Cn1c(Nc2c(Cl)cccc2Cl)nc2ccc3nc(-c4nc5ccccc5[nH]4)[nH]c(=O)c3c21 [Example 43] | > 300 °C
46 | CC(C)c1nc2ccc3nc(Nc4c(Cl)cccc4Cl)n(C)c3c2c(=O)[nH]1 [Example 49] | 279 °C (dec.)
47 | Cn1c(Nc2c(Cl)cccc2Cl)nc2ccc3nc(C(N)=O)[nH]c(=O)c3c21 [Example 27] | > 300 °C
48 | Cn1c(Nc2c(Cl)cccc2Cl)nc2ccc3nc(-c4cccc(N)c4)[nH]c(=O)c3c21 [Example 19] | 200 °C (dec.)
49 | Cn1c(Nc2c(Cl)cccc2Cl)nc2ccc3nc(C4=CC5CN(C(=O)OC(C)(C)C)CC5C4)[nH]c(=O)c3c21 (stereo not drawn) [Example 94] | 210 to 215 °C
50 | Cn1c(Nc2c(Cl)cccc2Cl)nc2ccc3nc(-c4cccc(S(=O)(=O)N5CCN(C(=N)N)CC5)c4)[nH]c(=O)c3c21 [Example 90] | 215 °C
51 | CCOC(=O)c1nc2ccc3nc(Nc4c(Cl)cccc4Cl)n(C)c3c2c(=O)[nH]1 [Example 37] | 275 to 277 °C
52 | Cn1c(Nc2c(Cl)cccc2Cl)nc2ccc3nc(C4=CCN(C(=O)OC(C)(C)C)C4)[nH]c(=O)c3c21 [Example 83] | 206 to 208 °C
53 | Cc1ccoc1-c1nc2ccc3nc(Nc4c(Cl)cccc4Cl)n(C)c3c2c(=O)[nH]1 [Example 58] | 304 to 310 °C (dec.)
54 | CC(=O)C1CC=C(c2nc3ccc4nc(Nc5c(Cl)cccc5Cl)n(C)c4c3c(=O)[nH]2)C1 (stereo not drawn) [Example 72] | > 215 °C (dec.)
55 | [H]/N=C(/N)c1cccc(/C=C(\C)c2nc3ccc4nc(Nc5c(Cl)cccc5Cl)n(C)c4c3c(=O)[nH]2)c1 [Example 92] | > 300 °C
56 | CC(=O)OCC(=O)N1CCN(S(=O)(=O)c2cccc(-c3nc4ccc5nc(Nc6c(Cl)cccc6Cl)n(C)c5c4c(=O)[nH]3)c2)CC1 [Example 85] | 246 °C (dec.)
57 | Cn1c(Nc2c(Cl)cccc2Cl)nc2ccc3nc(-c4csc([C@H]5CCCN5C(=O)OCc5ccccc5)n4)[nH]c(=O)c3c21 [Example 73] | 209 °C
58 | Cn1c(Nc2c(Cl)cccc2Cl)nc2ccc3nc(Cc4ccccc4)[nH]c(=O)c3c21 [Example 34] | > 250 °C (dec.)
59 | Cn1c(Nc2c(Cl)cccc2Cl)nc2ccc3nc(-c4cnc(-c5ccccc5)o4)[nH]c(=O)c3c21 [Example 26] | > 290 °C
60 | Cn1c(Nc2c(Cl)cccc2Cl)nc2ccc3nc(C(=O)c4c[nH]c5ccccc45)[nH]c(=O)c3c21 [Example 47] | > 300 °C
61 | Cn1c(Nc2c(Cl)cccc2Cl)nc2ccc3nc(-c4csc(CC5CCCN(C(=O)OCc6ccccc6)C5)n4)[nH]c(=O)c3c21 (stereo not drawn) [Example 76] | 155 to 160 °C
62 | CC(C)=C(C)c1nc2ccc3nc(Nc4c(Cl)cccc4Cl)n(C)c3c2c(=O)[nH]1 [Example 63] | > 300 °C
63 | Cn1c(Nc2c(Cl)cccc2Cl)nc2ccc3nc(C4=CC5C=CC4N5C(=O)OCc4ccccc4)[nH]c(=O)c3c21 (stereo not drawn) | > 275 °C (dec.)
64 | CCCCCc1nc2ccc3nc(Nc4c(Cl)cccc4Cl)n(C)c3c2c(=O)[nH]1 [Example 64] | 257 to 260 °C
65 | CNc1nc2ccc3nc(Nc4c(Cl)cccc4Cl)n(C)c3c2c(=O)[nH]1 [Example 62] | 198 to 204 °C
66 | Cn1c(Nc2c(Cl)cccc2Cl)nc2ccc3nc(-c4csc(-c5cccc(N)c5)n4)[nH]c(=O)c3c21 [Example 36] | 240 °C (dec.)
